{
  "source": "patent US9464077B2",
  "about": "“Nitrogen-containing aromatic heterocyclic compound” (Astellas Pharma Inc., priority 2012, dated 2016)",
  "key": {"[1]": {"test_system": "bladder cancer patient-derived cell line RT-112", "experiment": "Anchorage-independent cell growth inhibition, spheroid plate", "type": "cell-based", "details": "Homo sapiens, RT-112, 96 h, 4 days, read-out: growth inhibition rate RT-112"}, "[2]": {"test_system": "FGFR3-TACC3_v2 (N-FLAG) fusion polypeptide", "experiment": "In vitro kinase activity inhibition (HTRF KinEASE-TK)", "type": "biochemical, human", "details": "100 μM ATP"}, "[3]": {"test_system": "FGFR3-TACC3_v1 (N-FLAG) fusion polypeptide", "experiment": "In vitro kinase activity inhibition (HTRF KinEASE-TK)", "type": "biochemical, human", "details": "100 μM ATP"}, "[4]": {"test_system": "bladder cancer patient-derived cell line RT4", "experiment": "Anchorage-independent cell growth inhibition, spheroid plate", "type": "cell-based", "details": "Homo sapiens, 96 h, 4 days, read-out: growth inhibition rate RT4"}, "[5]": {"test_system": "FGFR3-BAIAP2L1-expressing NIH3T3 cells", "experiment": "Anchorage-independent cell growth inhibition, spheroid plate", "type": "cell-based", "details": "Mus musculus, NIH3T3, 96 h, 4 days, read-out: growth inhibition rate FGFR3-BAIAP2L1-expressing NIH3T3 Cells", "method": "(§1) In a 96-well spheroid plate (Sumilon Celltight Spheroid 96U; Sumitomo Bakelite), FGFR3-BAIAP2L1-expressing NIH3T3 cells were seeded at 1×10^3 cells per well in D-MEM medium containing 10% fetal bovine serum. A well supplemented with only medium was also prepared for a positive control. Culturing was performed overnight in the presence of 5% CO2 at 37° C. followed by addition of test compounds (final concentrations: 100 nM, 10 nM, and 1 nM). As a negative control, DMSO used as a solvent for the compounds was added at the same concentration (0.1%) as in the case of addition of the compounds. Then, culturing was performed in the presence of 5% CO2 at 37° C. for 4 days, and a cell counting reagent (CellTiter-Glo™ Luminescent Cell Viability Assay; Promega) was added and the resulting mixture was stirred for 20 minutes followed by measurement with a luminometer."}, "[6]": {"test_system": "FGFR3-TACC3_v3 (N-FLAG) fusion polypeptide", "experiment": "In vitro kinase activity inhibition (HTRF KinEASE-TK)", "type": "biochemical, human", "details": "100 μM ATP"}, "human recombinant FGFR3": {"target": "human recombinant FGFR3 (Homo sapiens, UniProt P22607)", "sequence (P22607 23-806)": "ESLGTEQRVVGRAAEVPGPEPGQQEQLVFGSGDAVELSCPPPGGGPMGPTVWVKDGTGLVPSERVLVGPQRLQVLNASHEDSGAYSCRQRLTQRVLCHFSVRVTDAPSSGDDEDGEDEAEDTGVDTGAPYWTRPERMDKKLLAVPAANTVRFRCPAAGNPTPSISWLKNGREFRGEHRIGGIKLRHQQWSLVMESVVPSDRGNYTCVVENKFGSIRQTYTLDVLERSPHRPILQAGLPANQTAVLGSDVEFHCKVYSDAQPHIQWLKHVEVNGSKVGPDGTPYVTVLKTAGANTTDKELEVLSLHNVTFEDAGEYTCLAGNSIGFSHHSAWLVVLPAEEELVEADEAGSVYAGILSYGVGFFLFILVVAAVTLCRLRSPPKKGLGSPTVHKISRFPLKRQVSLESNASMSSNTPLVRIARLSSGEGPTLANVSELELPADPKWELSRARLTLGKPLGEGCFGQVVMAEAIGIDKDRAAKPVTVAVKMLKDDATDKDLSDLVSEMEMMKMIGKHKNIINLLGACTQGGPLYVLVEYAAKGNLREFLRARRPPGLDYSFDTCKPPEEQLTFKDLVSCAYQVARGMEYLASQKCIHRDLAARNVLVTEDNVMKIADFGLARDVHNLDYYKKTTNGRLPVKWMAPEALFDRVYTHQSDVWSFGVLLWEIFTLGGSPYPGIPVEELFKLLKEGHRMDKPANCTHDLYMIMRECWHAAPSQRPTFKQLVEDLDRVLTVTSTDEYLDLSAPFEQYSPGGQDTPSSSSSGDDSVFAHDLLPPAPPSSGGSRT", "experiment": "FGFR3 enzyme assay (LabChip EZ Reader)", "description": "(§3) The compound was diluted with a solution of dimethyl sulfoxide (DMSO) (10-fold common ratio, 4 portions) before dilution with a reaction buffer (100 mM HEPES (pH7.5), 0.003% Brij-35, 0.004% Tween 20, 0.5 mM DTT, and 10 mM MgCl2) so that the final DMSO concentration was 2%. To 4 μL of the compound solution in a 384-well plate, 2 μL each of FGFR1 enzyme (2 or 3 ng/μL), FGFR2 enzyme (2 ng/μL), or FGFR3 enzyme (6 ng/μL) which were diluted with the reaction buffer was added. […] After the reaction was stopped, the reaction mixture was measured with a LabChip EZ Reader. The IC50 values were calculated by non-linear regression based on the inhibition rates obtained."}, "[7]": {"test_system": "UM-UC-14 (FGFR3_S249C-positive cells, bladder cancer)", "experiment": "Antitumor test on UM-UC-14 subcutaneous xenograft", "type": "in vivo, nude mice", "details": "oral, 1 mg/kg/day, once a day, tumor volume at Day 11 vs Day 1", "method": "3×10^6 UM-UC-14 cells per 0.1 mL (PBS+matrigel, 1:1) were inoculated subcutaneously into the right flank of nude mice (CAnN, Cg-Foxn1nu/CrlCrlj (nu/nu), male, 4- to 5-week-old), and when their tumor size reached about 250 mm^3, drug administration was started (Day 1). The drug was administered once a day and the tumor size was measured with a caliper and the body weight was also measured every two or three days. The antitumor effect was finally determined based on the tumor volume (mm^3; minor axis (mm)×minor axis (mm)×major axis (mm)/2) at Day 11 (n=3-5). To the control group, 0.5% MC (methyl cellulose) was administered. […] “% regression” indicates what percentage of regression could be achieved compared with the tumor volume at Day 1. Here, the tumor volume at Day 1 means tumor volume immediately before drug administration."}, "human recombinant FGFR1": {"target": "human recombinant FGFR1 (Homo sapiens, UniProt P11362)", "sequence (P11362 22-822)": "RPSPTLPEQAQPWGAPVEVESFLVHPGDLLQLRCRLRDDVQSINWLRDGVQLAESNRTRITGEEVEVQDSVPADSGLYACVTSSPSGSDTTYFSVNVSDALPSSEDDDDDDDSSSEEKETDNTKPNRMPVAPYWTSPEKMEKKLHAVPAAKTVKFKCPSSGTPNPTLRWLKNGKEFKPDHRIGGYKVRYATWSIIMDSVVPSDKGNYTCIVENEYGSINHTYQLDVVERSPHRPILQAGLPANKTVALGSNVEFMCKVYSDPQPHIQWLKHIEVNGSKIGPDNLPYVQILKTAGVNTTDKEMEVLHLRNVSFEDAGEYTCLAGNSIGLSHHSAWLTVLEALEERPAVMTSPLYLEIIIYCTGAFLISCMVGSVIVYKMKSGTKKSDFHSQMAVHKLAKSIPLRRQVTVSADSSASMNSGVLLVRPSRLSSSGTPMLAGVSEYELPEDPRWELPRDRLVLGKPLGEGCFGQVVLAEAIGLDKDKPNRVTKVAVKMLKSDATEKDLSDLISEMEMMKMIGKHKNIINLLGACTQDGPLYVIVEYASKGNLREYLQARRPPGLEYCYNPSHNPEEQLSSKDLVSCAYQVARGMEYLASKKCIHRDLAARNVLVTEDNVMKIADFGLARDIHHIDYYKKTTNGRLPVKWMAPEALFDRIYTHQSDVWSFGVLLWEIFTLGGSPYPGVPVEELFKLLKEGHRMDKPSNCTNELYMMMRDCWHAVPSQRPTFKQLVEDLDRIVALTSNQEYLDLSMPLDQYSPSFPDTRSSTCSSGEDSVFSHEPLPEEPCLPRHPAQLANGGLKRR", "experiment": "FGFR1 enzyme assay (LabChip EZ Reader)", "description": "as §3"}, "[8]": {"test_system": "FGFR3-TACC3_v1-expressing NIH3T3 cells", "experiment": "Anchorage-independent cell growth inhibition, spheroid plate", "type": "cell-based", "details": "Mus musculus, NIH3T3, 96 h, 4 days, read-out: growth inhibition rate v1", "source_text": "(§2) Measurement for anchorage-independent cell growth (colony method, etc.) is known to be a system for investigating the anticancer action (pharmacological effect) of compounds (Clinical Oncology, second edition, Cancer and Chemotherapy Publishers Inc.). As a method for measuring the non-adhesive growth of cells, there is the following method using a spheroid plate as referred to above in place of the colony method.\nas §1, with “Bakelite), FGFR3-TACC3_v1-expressing NIH3T3 cells, FGFR3-TACC3_v2-expressing NIH3T3 cells, FGFR3-TACC3_v3-expressing NIH3T3 cells, and FGFR3-TACC3_v4-expressing” for “Bakelite), FGFR3-BAIAP2L1-expressing”, “were each” for “were”, “D-MEM media (Invitrogen)” for “D-MEM medium”, “serum. […]” for “serum.”"}, "[9]": {"test_system": "FGFR3-TACC3_v3-expressing NIH3T3 cells", "experiment": "Anchorage-independent cell growth inhibition, spheroid plate", "type": "cell-based", "details": "Mus musculus, NIH3T3, 96 h, 4 days, read-out: growth inhibition rate v3", "source_text": "as §2\nas §1, with “Bakelite), FGFR3-TACC3_v1-expressing NIH3T3 cells, FGFR3-TACC3_v2-expressing NIH3T3 cells, FGFR3-TACC3_v3-expressing NIH3T3 cells, and FGFR3-TACC3_v4-expressing” for “Bakelite), FGFR3-BAIAP2L1-expressing”, “were each” for “were”, “D-MEM media (Invitrogen)” for “D-MEM medium”, “serum. […]” for “serum.”"}, "[10]": {"test_system": "FGFR3-TACC3_v4-expressing NIH3T3 cells", "experiment": "Anchorage-independent cell growth inhibition, spheroid plate", "type": "cell-based", "details": "Mus musculus, NIH3T3, 96 h, 4 days, read-out: growth inhibition rate v4", "source_text": "as §2\nas §1, with “Bakelite), FGFR3-TACC3_v1-expressing NIH3T3 cells, FGFR3-TACC3_v2-expressing NIH3T3 cells, FGFR3-TACC3_v3-expressing NIH3T3 cells, and FGFR3-TACC3_v4-expressing” for “Bakelite), FGFR3-BAIAP2L1-expressing”, “were each” for “were”, “D-MEM media (Invitrogen)” for “D-MEM medium”, “serum. […]” for “serum.”"}, "[11]": {"test_system": "FGFR3-TACC3_v2-expressing NIH3T3 cells", "experiment": "Anchorage-independent cell growth inhibition, spheroid plate", "type": "cell-based", "details": "Mus musculus, NIH3T3, 96 h, 4 days, read-out: growth inhibition rate v2", "source_text": "as §2\nas §1, with “Bakelite), FGFR3-TACC3_v1-expressing NIH3T3 cells, FGFR3-TACC3_v2-expressing NIH3T3 cells, FGFR3-TACC3_v3-expressing NIH3T3 cells, and FGFR3-TACC3_v4-expressing” for “Bakelite), FGFR3-BAIAP2L1-expressing”, “were each” for “were”, “D-MEM media (Invitrogen)” for “D-MEM medium”, “serum. […]” for “serum.”"}},
  "data": [
    {"smiles": "COc1cc(OC)c(F)c(COc2cnc(Nc3ccc(N4CCC(NCCO)CC4)cc3)nc2)c1F", "note": "[Example 299]", "values": [
      {"measurement": "inhibition at 0.001 µM", "setting": "[1]; 1 nM", "result": 31, "unit": "%"},
      {"measurement": "inhibition at 0.01 µM", "setting": "[1]; 10 nM", "result": 84, "unit": "%"},
      {"measurement": "inhibition at 0.1 µM", "setting": "[1]; 100 nM", "result": 89, "unit": "%"},
      {"measurement": "rate of inhibiting kinase activity v2", "setting": "[2]; 1 nM", "result": 20, "unit": "%"},
      {"measurement": "rate of inhibiting kinase activity v2", "setting": "[2]; 10 nM", "result": 77, "unit": "%"},
      {"measurement": "rate of inhibiting kinase activity v2", "setting": "[2]; 100 nM", "result": 95, "unit": "%"},
      {"measurement": "rate of inhibiting kinase activity v1", "setting": "[3]; 1 nM", "result": 35, "unit": "%"},
      {"measurement": "rate of inhibiting kinase activity v1", "setting": "[3]; 10 nM", "result": 84, "unit": "%"},
      {"measurement": "rate of inhibiting kinase activity v1", "setting": "[3]; 100 nM", "result": 94, "unit": "%"},
      {"measurement": "inhibition at 0.001 µM", "setting": "[4]; 1 nM", "result": 8, "unit": "%"},
      {"measurement": "inhibition at 0.01 µM", "setting": "[4]; 10 nM", "result": 45, "unit": "%"},
      {"measurement": "inhibition at 0.1 µM", "setting": "[4]; 100 nM", "result": 63, "unit": "%"},
      {"measurement": "inhibition at 0.001 µM", "setting": "[5]; 1 nM", "result": 15, "unit": "%"},
      {"measurement": "inhibition at 0.01 µM", "setting": "[5]; 10 nM", "result": 81, "unit": "%"},
      {"measurement": "inhibition at 0.1 µM", "setting": "[5]; 100 nM", "result": 91, "unit": "%"},
      {"measurement": "rate of inhibiting kinase activity v3", "setting": "[6]; 1 nM", "result": 47, "unit": "%"},
      {"measurement": "rate of inhibiting kinase activity v3", "setting": "[6]; 10 nM", "result": 88, "unit": "%"},
      {"measurement": "rate of inhibiting kinase activity v3", "setting": "[6]; 100 nM", "result": 96, "unit": "%"},
      {"measurement": "IC50", "setting": "human recombinant FGFR3", "result": 2, "unit": "nM"},
      {"measurement": "Antitumor Activity, % regression", "setting": "[7]", "result": 15, "unit": "%"},
      {"measurement": "IC50", "setting": "human recombinant FGFR1", "result": "< 1", "unit": "nM"},
      {"measurement": "inhibition at 0.001 µM", "setting": "[8]; 1 nM", "result": 9, "unit": "%"},
      {"measurement": "inhibition at 0.01 µM", "setting": "[8]; 10 nM", "result": 77, "unit": "%"},
      {"measurement": "inhibition at 0.1 µM", "setting": "[8]; 100 nM", "result": 92, "unit": "%"},
      {"measurement": "inhibition at 0.001 µM", "setting": "[9]; 1 nM", "result": 5, "unit": "%"},
      {"measurement": "inhibition at 0.01 µM", "setting": "[9]; 10 nM", "result": 51, "unit": "%"},
      {"measurement": "inhibition at 0.1 µM", "setting": "[9]; 100 nM", "result": 89, "unit": "%"},
      {"measurement": "inhibition at 0.001 µM", "setting": "[10]; 1 nM", "result": 16, "unit": "%"},
      {"measurement": "inhibition at 0.01 µM", "setting": "[10]; 10 nM", "result": 82, "unit": "%"},
      {"measurement": "inhibition at 0.1 µM", "setting": "[10]; 100 nM", "result": 90, "unit": "%"},
      {"measurement": "inhibition at 0.001 µM", "setting": "[11]; 1 nM", "result": 4, "unit": "%"},
      {"measurement": "inhibition at 0.01 µM", "setting": "[11]; 10 nM", "result": 63, "unit": "%"},
      {"measurement": "inhibition at 0.1 µM", "setting": "[11]; 100 nM", "result": 91, "unit": "%"}
    ]}
  ]
}
